The results in this text go back to patent US9006185B2, “Use of cell-permeable peptide inhibitors of the JNK signal transduction pathway for the treatment of various diseases” (Xigen Inflammation Ltd., priority 2008, dated 2015).

The subject of experiment [1] is hAPP Tg mice. Kind of experiment: Plaque load by 6E10 immunohistochemistry and ThioflavinS staining in hAPP Tg mice. Type of experiment: in vivo. How it is done:
iv) Treatment • Forty female hAPP transgenic mice were treated with either 0.1 mg/kg b.w./every two weeks or 10 mg/kg b.w./every three weeks of the test substance XG-102 (SEQ ID NO: 11) in two different dosages (n=12/group) or treated with the vehicle (n=12) s.c. once every three weeks over four months.
viii) Evaluation of Brain Morphology • Brain tissues of all Tg animals investigated were handled in exactly the same way to avoid bias due to variation of this procedure. From brain halves of 24 Tg mice (8 of each group) 20 cryo-sections per layer (altogether 5 layers), each 10 μm thick (Leica CM 3050S) were sagittally cut and 5 (one from each layer) were processed and evaluated for quantification of plaque load. The five sagittal layers corresponded with the FIGS. 104 to 105, 107 to 108, 111 to 112, 115 to 116 and 118 to 119 according to the morphology atlas “The Mouse Brain” from Paxinos and Franklin (2nd edition). The first layer was specified by the requirement to include the whole hippocampus with it's regions CA1, CA2, CA3, GDIb and GDmb. Immunoreactivity was quantitatively evaluated in the hippocampus and in the cortex using the monoclonal human Aβ-specific antibody 6E10 (Signet) as well as ThioflavinS staining. Remaining brain hemispheres or tissue not used were saved and stored at JSW CNS until the end of the project. b) Evaluation
iii) Histology • i1) Measurement of Amyloid Depositions and Plaque Load • For 6E10 immunohistochemistry the following evaluation procedure was used: • aa) Contrasting the image for visualization of slice borders without applying the contrast on the image. • bb) Interactive drawing of the cortical outlines and the following measurement of the cortical area (=region area). • cc) Interactive drawing of the area of interest (AOI), in which stained objects are detected over a certain intensity based threshold level (the same for each image) and above a size of 8 μm^2. • dd) Measurement of the area of each object, the sum of stained area in the AOI as well as the number of objects after a smooth contrasting to enhance signal/noise ratio (the same for each image). • ee) Repetition of aa)-dd) for the hippocampus. • ff) Calculation of the mean plaque size (=“sum area of plaques/number of plaques”), the relative plaque number and area (=“number of plaques/region area” and “sum area of plaques/region area*100”). • gg) Automated data export into an Excel spread sheet, including the parameters “image title, region area, number of plaques, sum of plaque area, relative plaque number, relative plaque area and mean plaque size. A field for remarks was used to record image quality and exclusion criteria, respectively. Exclusion criteria were missing parts of the slice, many wrinkles, dominant flaws or staining inconsistencies (e.g. due to bulges, which can impede the full reaction of the blocking reagent). • hh) Closing the image without saving (to keep raw data raw). c) Results

The test system of experiment [2] is C57BL/6 mice. Put plainly: Bleomycin induced acute lung inflammation. The format is in vivo. The text has this:
In order to determine the activity of the exemplary all-D retro-inverso IB(s) peptide XG-102 (SEQ ID NO: 11) in the treatment of Chronic Obstructive Pulmonary Disease (COPD) XG-102 (SEQ ID NO: 11) is used in an animal model of Bleomycin induced acute lung inflammation and fibrosis. The protocol of bleomycin induced inflammation and fibrosis has been described before in the literature. The aim of the Experiment was to investigate the effect of XG-102 (SEQ ID NO: 11) by subcutaneous (s.c.) route on neutrophil recruitment in broncho alveolar lavage (BAL) and lung in bleomycin induced inflammation and fibrosis: • at 1 day after a single bleomycin administration (10 mg/kg) • and at day 10 with the development of fibrosis 1) Method and Experimental Approach • The test compound XG-102 (SEQ ID NO: 11) at two doses and vehicle control were given s.c. with a single intranasal administration of bleomycin and mice were analyzed after 1 and 10 days. The animals used in the model were 10 C57BL/6 mice (8 weeks old) per group. The experimental groups included vehicle, 0.001 mg/kg XG-102 (SEQ ID NO: 11) and 0.1 mg/kg XG-102 (SEQ ID NO: 11), and the treatment consisted of repeated sub-cutaneous administration of XG-102 (SEQ ID NO: 11), prior to bleomycin administration then every 3 days. Acute lung inflammation at 24 h was monitored by BAL lavage, cytology, cell counts, and lung myeloperoxidase activity. The effect of the compound was compared with vehicle controls. Lung fibrosis was assessed histologically using hematoxylin and eosin staining at day 10 after the single dose of bleomycin. 1.1) Bleomycin Administration • Bleomycin sulfate in saline (10 mg/kg body weight) from Belton Laboratories (Montrouge, France) or saline were given through the airways by nasal instillation in a volume of 40 μL under light ketamine-xylasine anesthesia. The groups for Bleomycin administration for both bleomycin induced inflammation and fibrosis included: Vehicle, 0.001 mg/kg XG-102 (SEQ ID NO: 11) and 0.1 mg/kg XG-102 (SEQ ID NO: 11). The route for bleomycin induced inflammation was subcutaneous (s.c.) route, and administration occurred as a single dose. The route for bleomycin induced fibrosis was subcutaneous (s.c.) route, and administration occurred 3 times in 10 days. 1.2) Bronchioalveolar Lavage Fluid (BAL F) • After incision of the trachea, a plastic cannula was inserted and airspaces were washed using 0.3 ml of PBS solution, heated to 37° C. The samples collected were dispatched in 2 fractions: the first one (1 ml corresponding to the 2 first lavages) was used for mediator measurement and the second one for the cell determination (4 ml). The first fraction was centrifuged (600 g for 10 min) and supernatant was fractionated and kept at −80° C. until mediator determination. The cell pellet was then resuspended in 0.4 ml sterile NaCl, 0.9%, and pooled with the second fraction and was used for cell counts. […] 1.4) Cell Count and Determination • Total cell count was determined in BAL fluid using a Malassez hemocytometer. […] 1.5) TNF Measurement • TNF level in BALF was determined using ELISA assay kits (Mouse DuoSet, R&D system, Minneapolis, USA) according to manufacturer's instructions. […] 1.6) MPO-Measurement • MPO-levels were measured upon administration of XG-102. […]

Entries after “also recorded” stand apart in the source; their conditions may differ.

For `CC(C)C[C@@H](NC(=O)[C@@H](Cc1ccccc1)NC(=O)[C@H]1CCCN1C(=O)[C@@H](CCC(N)=O)NC(=O)[C@H](NC(=O)[C@H]1CCCN1C(=O)[C@@H](CCCNC(=N)N)NC(=O)[C@@H](CO)NC(=O)[C@@H](CCC(N)=O)NC(=O)[C@H](N)CC(=O)O)C(C)C)C(=O)N[C@H](CC(N)=O)C(=O)N[C@H](CC(C)C)C(=O)N[C@@H](C(=O)N[C@@H](C(=O)N1CCC[C@@H]1C(=O)N[C@H](CCCNC(=N)N)C(=O)N[C@H](CCCCN)C(=O)N1CCC[C@@H]1C(=O)N[C@H](CCCNC(=N)N)C(=O)N1CCC[C@@H]1C(=O)N1CCC[C@@H]1C(=O)N[C@H](CCCNC(=N)N)C(=O)N[C@H](CCCNC(=N)N)C(=O)N[C@H](CCCNC(=N)N)C(=O)N[C@H](CCC(N)=O)C(=O)N[C@H](CCCNC(=N)N)C(=O)N[C@H](CCCNC(=N)N)C(=O)N[C@H](CCCCN)C(=O)N[C@H](CCCCN)C(=O)N[C@H](CCCNC(=N)N)C(=O)NCC(=O)O)[C@H](C)O)[C@H](C)O` [XG-102], the “mean plaque size (ThioflavinS, hippocampus)” value in experiment [1] (0.1 mg/kg) is listed as “reduced mean plaque size, however this effect did not reach significance level”. In experiment [1] (10 mg/kg), the “cortical 6E10 IR plaque load” value is “increased versus vehicle”. In addition, in experiment [1] (mouse, in vivo), the “ThioflavinS plaque area [%] in the hippocampus” value was “significantly reduced the area obtained by plaques in the hippocampus” and the “cortical plaque load (ThioflavinS)” value is given as “cortical plaque load remained unchanged”. In addition, the “number of hippocampal ThioflavinS positive plaques” value in experiment [1] (p<0.05 for 10 mg/kg, p<0.01 for 0.1 mg/kg) was “reduced the number of plaques negatively dose-dependent in the hippocampus; also recorded: a negatively dose dependent reduction of the number of hippocampal ThioflavinS positive plaques”. Moreover, the “neutrophil recruitment and other cell types in bronchioalveolar space” value in experiment [2] (0.001 mg/kg s.c., single dose, 1 day) is given as “has no effect on neutrophil recruitment or other cell types”. The “neutrophil recruitment and total cells in bronchioalveolar lavage space” value in experiment [2] (0.1 mg/kg s.c., single dose, 1 day) is “reduces significantly the neutrophil recruitment and the number of total cells recruited”. Besides, the “histology, inflammatory cell accumulation” value in experiment [2] (acute inflammation study) was “a decrease of the inflammatory cell accumulation in the peribronchial space”. The “MPO levels in the lung” value in experiment [2] (s.c., MPO not significantly induced after bleomycin) was “only little effect on the MPO levels in the lung; also recorded: no effect on the MPO levels in the lung”. In addition, the “TNF level in BALF” value in experiment [2] (s.c., TNF levels very low after BLM) is reported as “a trend to reduction of the TNF level in BALF”.
